Data taken from patent publication US20070015823A1, “Ambruticin VS compounds” (priority 2004, published 2007).
Converted amounts (≈) assume the structure as drawn. Where two headings read alike, the source gives them in different places.

How the values were obtained:
C. posadasii = assay: microbe, parasite or virus in culture; assay type: cell-based, Coccidioides posadasii; details: for MIC: Coccidioides posadasii
C. immitis = assay: microbe, parasite or virus in culture; assay type: cell-based, Coccidioides immitis; details: for MIC: Coccidioides immitis
A. flavus ATCC 204304 = assay: Broth microdilution antifungal susceptibility, NCCLS M38-A; assay type: cell-based, Aspergillus flavus; details: minimal concentration inhibiting >95% growth; average of at least two assays (except I-l and I-x)
A. fumigatus ATCC 204305 = assay: as above; assay type: cell-based, Aspergillus fumigatus; details: minimal concentration inhibiting >95% growth; average of at least two assays (except I-l and I-x)
Blastomyces dermatitidis = assay: as above; assay type: cell-based
Histoplasma capsulatum = assay type: cell-based
Fusarium solani = assay: Broth microdilution antifungal susceptibility, NCCLS M38-A; assay type: cell-based; details: strain 96-1; 50% growth inhibition; range = minimum and maximum of multiple assays
S. apiospermum = assay: as above; assay type: cell-based, Scedosporium apiospermum
Candida albicans = details: 50% growth inhibition, range = minimum and maximum of multiple assays; for MIC C. albicans 24433: strain 24433; for MIC C. albicans 90028: strain 90028
[1] = test system: Trichophyton mentagrophytes; assay: Dermatophyte broth microdilution, NCCLS M38-A; assay type: cell-based
Microsporum gypseum = assay: Dermatophyte broth microdilution, NCCLS M38-A; assay type: cell-based
[2] = test system: Trichophyton interdigitale; assay: Dermatophyte broth microdilution, NCCLS M38-A; assay type: cell-based
Epidermophyton floccosum = assay: Dermatophyte broth microdilution, NCCLS M38-A; assay type: cell-based
Trichophyton rubrum = assay: Dermatophyte broth microdilution, NCCLS M38-A; assay type: cell-based
Microsporum canis = assay: Dermatophyte broth microdilution, NCCLS M38-A; assay type: cell-based
Cryptococcus neoformans = assay: Broth microdilution antifungal susceptibility, NCCLS M38-A; details: 50% growth inhibition, range = minimum and maximum of multiple assays; for MIC C. neoformans 97-14: strain 97-14; for MIC C. neoformans 11239: strain 11239; for MIC C. neoformans 11240: strain 11240

Row | Structure (SMILES) | MIC0 A. flavus ATCC 204304 (A. flavus ATCC 204304) [µg/mL] | MIC0 A. fumigatus ATCC 204305 (A. fumigatus ATCC 204305) [µg/mL] | MIC F. solani 96-1 (Fusarium solani) [µg/mL] | MIC S. apiospermum 94-54 (S. apiospermum) [µg/mL] | MIC S. apiospermum 98-38 (S. apiospermum) [µg/mL] | MIC S. apiospermum 98-89 (S. apiospermum) [µg/mL] | MIC C. albicans 24433 (Candida albicans) [µg/mL] | MIC C. albicans 90028 (Candida albicans) [µg/mL] | MIC0 Tm [1] [µg/mL] | MIC0 Mg (Microsporum gypseum) [µg/mL] | MIC0 Ti [2] [µg/mL] | MIC0 Ef (Epidermophyton floccosum) [µg/mL] | MIC0 Tr (Trichophyton rubrum) [µg/mL] | MIC0 Mc (Microsporum canis) [µg/mL] | MIC C. neoformans 97-14 (Cryptococcus neoformans) [µg/mL] | MIC C. neoformans 11239 (Cryptococcus neoformans) [µg/mL] | MIC C. neoformans 11240 (Cryptococcus neoformans) [µg/mL] | further results
1 | OC(Cn1cncn1)(Cn1cncn1)c1ccc(F)cc1F [Fluconazole] | – | – | – | – | – | – | – | – | – | – | – | – | – | – | – | – | – | MIC (C. posadasii; read-out: MIC C. posadasii C735): 16 µg/mL (≈ 52.2 µM); MIC (C. posadasii; read-out: MIC C. posadasii RMSCC 2127): 16 µg/mL (≈ 52.2 µM); MIC (C. posadasii; read-out: MIC C. posadasii Silveria): 4 µg/mL (≈ 13.1 µM); MIC (C. immitis; read-out: MIC C. immitis RMS 2281): 16 µg/mL (≈ 52.2 µM); MIC (C. immitis; read-out: MIC C. immitis RS): 16 µg/mL (≈ 52.2 µM); MIC (C. immitis; read-out: MIC C. immitis S46): 16 µg/mL (≈ 52.2 µM)
2 | CC[C@H]1O[C@@H](/C(C)=C/[C@H](C)/C=C/[C@H]2[C@@H](C)[C@@H]2/C=C/[C@@H]2O[C@H](CCO)C[C@H](N(C)C)[C@H]2O)CC=C1C [I-ff, (5S,6R)-5-(dimethylamino)polyangi-1,6-diol] | 1.76 | 2.07 | 8 to 16 | 32 (≈ 65.6 µM) | 16 (≈ 32.8 µM) | 0.5 (≈ 1.03 µM) | 32 (≈ 65.6 µM) | 32 (≈ 65.6 µM) | – | – | – | – | – | – | – | – | – | MIC0 Blastomyces dermatitidis 04-2167 (Blastomyces dermatitidis): 0.06 µg/mL; MIC0 Blastomyces dermatitidis 04-2508 (Blastomyces dermatitidis): 0.06 µg/mL; MIC0 Blastomyces dermatitidis 04-2915 (Blastomyces dermatitidis): 0.06 µg/mL; MIC0 Blastomyces dermatitidis 05-106 (Blastomyces dermatitidis): 0.06 µg/mL; MIC0 Blastomyces dermatitidis 05-186 (Blastomyces dermatitidis): 0.06 µg/mL; MIC0 Blastomyces dermatitidis 05-1391 (Blastomyces dermatitidis): 0.06 µg/mL; MIC0 Blastomyces dermatitidis 05-1707 (Blastomyces dermatitidis): ≦0.015 μg/mL; MIC0 Blastomyces dermatitidis 05-1820 (Blastomyces dermatitidis): 0.03 µg/mL; MIC0 Blastomyces dermatitidis 05-1829 (Blastomyces dermatitidis): 0.06 µg/mL; MIC0 Blastomyces dermatitidis 05-2020 (Blastomyces dermatitidis): 0.06 µg/mL; MIC0 Blastomyces dermatitidis R-3529 (Blastomyces dermatitidis): 0.03 µg/mL; MIC0 Blastomyces dermatitidis R-35629 (Blastomyces dermatitidis): 0.06 µg/mL; MIC B. dermatitidis Gu (Blastomyces dermatitidis): >12.5 µg/mL; MIC B. dermatitidis Kr (Blastomyces dermatitidis): >12.5 µg/mL; MIC B. dermatitidis V (Blastomyces dermatitidis): >12.5 µg/mL; MIC H. capsulatum G217B (Histoplasma capsulatum): <0.19 µg/mL; MIC H. capsulatum GS20 (Histoplasma capsulatum): <0.19 µg/mL
3 | CC[C@H]1O[C@@H](/C(C)=C/[C@H](C)/C=C/[C@H]2[C@@H](C)[C@@H]2/C=C/[C@@H]2O[C@H](CC(N)=O)C[C@H](N(C)C)[C@H]2O)CC=C1C [I-hh, (5S,6R)-5-(dimethylamino)polyangiamide] | 2 | 1 | 16 (≈ 32 µM) | 32 (≈ 63.9 µM) | 32 (≈ 63.9 µM) | 1 to 2 | 32 (≈ 63.9 µM) | 32 (≈ 63.9 µM) | 2.82 | 1.25 | 3.17 | 2.82 | 2.51 | 0.7 | 1 (≈ 2 µM) | 1 (≈ 2 µM) | 1 (≈ 2 µM) | –
4 | CCOC(=O)O[C@H]1[C@H](/C=C/[C@H]2[C@H](C)[C@@H]2/C=C/[C@@H](C)/C=C(\C)[C@H]2CC=C(C)[C@@H](CC)O2)O[C@H](CC(N)=O)C[C@@H]1N(C)C [I-ii, (5S,6R)-5-(dimethylamino)-6-ethoxycarbonyloxy-polyangiamide] | 1 | 1 | – | – | – | – | – | – | 1.41 | 1 | 1.58 | 1 | 1.58 | 0.5 | 0.5 to 1 | 0.25 (≈ 0.436 µM) | 0.25 to 0.5 | MIC C. posadasii C735 (C. posadasii): 0.5 µg/mL (≈ 0.873 µM); MIC C. posadasii RMSCC 2127 (C. posadasii): 0.25 µg/mL (≈ 0.436 µM); MIC C. posadasii Silveria (C. posadasii): 0.5 µg/mL (≈ 0.873 µM); MIC C. immitis RMS 2281 (C. immitis): 0.125 µg/mL (≈ 0.218 µM); MIC C. immitis RS (C. immitis): 0.25 µg/mL (≈ 0.436 µM); MIC C. immitis S46 (C. immitis): 0.25 µg/mL (≈ 0.436 µM)
